Experimental findings from ChEMBL document CHEMBL1201862, “PubChem BioAssay data set” (2004) are described below.

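Protocol summary: plate cells (96-well), add compound at 5 concentrations, incubate 48 h, interpolate endpoints linearly. Here, GI50 denotes the concentration required for 50% inhibition of growth.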 Calls of active or inactive are those of the source. Cut-off read from the data, not from the text of the source: active = GI50 up to about 1.1 µM and inactive = higher.

Some test systems named below: K562; MOLT-4; SR; MCF7; BT-549; SNB-19; EKVX; DU-145; SF-268; ACHN; MDA-MB-231; HOP-92; T47D; M14; CCRF-CEM; SK-MEL-5; A549; HT-29; OVCAR-3.
Test in all cases: NCI-60 cell line screen, 48 h

Consider `C#CCOC(=O)c1ccccc1O`, for which the GI50 with K562, in the assay with MOLT-4, with SR, with MCF7, in the assay with BT-549 and with SNB-19 was > 100 µM (inactive) throughout. Moreover, the GI50 with EKVX, with DU-145, in the assay on SF-268, in the assay with ACHN, in the assay on MDA-MB-231 and with HOP-92 was > 100 µM (inactive) each time. The GI50 in the assay on T47D, in the assay with M14, in the assay with CCRF-CEM and in the assay on SK-MEL-5 was > 100 µM (inactive) throughout.
For `CC1(C)C2CC1C(/C=N\OCC(=O)O)=CC2=O` (centres undefined), the GI50 in the assay with K562, in the assay on MOLT-4, with SR, in the assay on MCF7, in the assay with BT-549 and in the assay with SNB-19 was > 100 µM (inactive) each time. The GI50 in the assay on EKVX, in the assay on DU-145, in the assay on A549, in the assay with SF-268, with ACHN and in the assay on MDA-MB-231 was > 100 µM (inactive) in each case. For the same compound, the GI50 in the assay with HOP-92, with T47D, in the assay on HT-29, in the assay on M14, in the assay on CCRF-CEM and with OVCAR-3 was > 100 µM (inactive) throughout. Besides, in the assay on SK-MEL-5, the GI50 was > 100 µM (inactive).
In the case of `COc1ccc(/C=C2\N=C(N3CCOCC3)NC2=O)cc1`, the GI50 in the assay on MOLT-4, with SR, in the assay on MCF7, with BT-549, with SNB-19 and in the assay on EKVX was > 100 µM (inactive) throughout. In addition, the GI50 with DU-145, in the assay on A549, in the assay with SF-268, in the assay on ACHN, in the assay on MDA-MB-231 and with HOP-92 was > 100 µM (inactive) throughout. Also, the GI50 in the assay on T47D, in the assay on HT-29, with M14, with CCRF-CEM and in the assay with OVCAR-3 was > 100 µM (inactive) each time.
For `COc1ccc(C2CC(c3c(C)nn(-c4ccccc4)c3-c3ccc(C)cc3O)=NN2c2ccccc2)cc1` (centres undefined), the GI50 with K562 was 7.13 µM (inactive); in the assay on MOLT-4, 4.65 µM (inactive); in the assay with SR, 13.3 µM (inactive); with MCF7, 8.07 µM (inactive); with BT-549, 55.3 µM (inactive); in the assay on SNB-19 it was > 29 µM (inactive). For the same compound, the GI50 was > 33.5 µM (inactive) in the assay with EKVX; > 79.3 µM (inactive) with DU-145; 4.35 µM (inactive) with A549; > 73.6 µM (inactive) with SF-268; 13.9 µM (inactive) in the assay on ACHN; > 46.5 µM (inactive) with MDA-MB-231. The GI50 with HOP-92 was > 100 µM (inactive); in the assay with T47D, 9.57 µM (inactive); in the assay with M14, 14.2 µM (inactive); with CCRF-CEM it was 6.05 µM (inactive); in the assay with OVCAR-3 it was > 50.5 µM (inactive); with SK-MEL-5, 18.5 µM (inactive).
On to `CN(/N=C/c1ccc(Cl)c(Cl)c1)C1=NCCN1`, for which the GI50 with K562 is 12.1 µM (inactive); in the assay on MOLT-4, 13.7 µM (inactive); with SR it was 31.2 µM (inactive); with MCF7, 22.9 µM (inactive); in the assay with BT-549, 28.3 µM (inactive); in the assay with SNB-19, 55.8 µM (inactive). For the same compound, the GI50 in the assay on EKVX was 59 µM (inactive); in the assay on DU-145, 48.6 µM (inactive); in the assay with A549 it was 33.4 µM (inactive); in the assay with SF-268, 28.7 µM (inactive); in the assay with ACHN, 31.9 µM (inactive); with MDA-MB-231 it was 23 µM (inactive). Further, the GI50 in the assay on HOP-92 was 21.7 µM (inactive); in the assay on T47D, 23 µM (inactive); with HT-29, 25.2 µM (inactive); with M14, 16.5 µM (inactive); in the assay with CCRF-CEM, 16.7 µM (inactive); with OVCAR-3, 28.6 µM (inactive). Besides, the GI50 with SK-MEL-5 is 16.4 µM (inactive).
For the compound `CC(C)=C[C@H]1C[C@H](C)[C@H]2CC[C@H](C)c3c2c1c(C)c1ncoc31`, the GI50 is 21.4 µM (inactive) in the assay on K562; 14.1 µM (inactive) in the assay on MOLT-4; 14.1 µM (inactive) in the assay with SR; 15 µM (inactive) with MCF7; 21.1 µM (inactive) with BT-549; 14.6 µM (inactive) with SNB-19. The GI50 is 15.9 µM (inactive) in the assay on EKVX; 18 µM (inactive) with DU-145; 14.9 µM (inactive) in the assay on A549; 19.5 µM (inactive) with SF-268; 18.1 µM (inactive) in the assay with ACHN; 20.4 µM (inactive) in the assay with MDA-MB-231. The GI50 in the assay with HOP-92 was 16.6 µM (inactive); in the assay with T47D, 17.8 µM (inactive); with M14, 15 µM (inactive); with CCRF-CEM, 17.7 µM (inactive); in the assay with OVCAR-3 it was 15.1 µM (inactive); in the assay on SK-MEL-5 it was 13.9 µM (inactive).
`O=c1[nH]c(N/N=C\C(O)C(O)C(O)C(O)CO)nc2ccccc12` (centres undefined): the GI50 with K562, in the assay on MOLT-4, with SR, with MCF7, in the assay on BT-549 and in the assay on SNB-19 was > 100 µM (inactive) in each case. Further, the GI50 with EKVX, in the assay with DU-145, in the assay on A549, in the assay with SF-268, with ACHN and in the assay with MDA-MB-231 was > 100 µM (inactive) each time. Also, the GI50 in the assay with HOP-92, in the assay with T47D, in the assay on HT-29, in the assay with M14, with CCRF-CEM and in the assay with OVCAR-3 was > 100 µM (inactive) throughout. For the same compound, the GI50 in the assay with SK-MEL-5 was > 100 µM (inactive).
On to `COc1ccc(/C=C2\C(=O)N(C)C(=O)c3cc(OC)c(OC)cc32)cc1OC`, for which the GI50 in the assay with K562 was 28.2 µM (inactive); with MOLT-4 it was 52.1 µM (inactive); in the assay with SR, 19.2 µM (inactive); in the assay on MCF7, 27.2 µM (inactive); with BT-549, 17.6 µM (inactive); in the assay on SNB-19, 43.3 µM (inactive). For the same compound, the GI50 in the assay with EKVX is 10.7 µM (inactive); in the assay on DU-145, 25.3 µM (inactive); in the assay on A549, 65.6 µM (inactive); with ACHN it was 30.5 µM (inactive); in the assay on MDA-MB-231, 39.4 µM (inactive); in the assay on HOP-92, 23.4 µM (inactive). The GI50 is 24.5 µM (inactive) in the assay on T47D; 9.06 µM (inactive) in the assay on HT-29; 65.2 µM (inactive) in the assay on M14; 20.2 µM (inactive) in the assay with CCRF-CEM; 37.4 µM (inactive) in the assay with OVCAR-3; 28.8 µM (inactive) with SK-MEL-5.
As to `COc1cc([C@@H]2c3cc4c(cc3[C@@H](OC3OC5CO[C@@H](c6cccs6)OC5C(O)C3O)[C@H]3COC(=O)[C@H]23)OCO4)cc(OC)c1O` (some centres undefined), the GI50 in the assay on K562 is 0.724 µM (active); with SR, 0.0117 µM (active); in the assay on MCF7, 0.038 µM (active); in the assay on BT-549 it was 0.586 µM (active); with SNB-19, 0.299 µM (active); in the assay on EKVX it was 1.3 µM (inactive). In addition, the GI50 was 0.324 µM (active) in the assay on DU-145; 0.144 µM (active) with A549; 0.48 µM (active) in the assay with SF-268; 0.173 µM (active) with ACHN; 1.12 µM (active) with MDA-MB-231; 0.132 µM (active) in the assay on HOP-92. The GI50 with T47D was 0.162 µM (active); in the assay on HT-29, 1.61 µM (inactive); in the assay with M14 it was 0.594 µM (active); in the assay on CCRF-CEM, 0.046 µM (active); in the assay on OVCAR-3 it was 1.73 µM (inactive); in the assay with SK-MEL-5, 0.548 µM (active).
`Nc1cccc2cc(S(=O)(=O)Nc3ccc(C(=O)O)cc3)ccc12`: the GI50 in the assay with K562, in the assay with SR, in the assay with MCF7, with BT-549, in the assay on SNB-19 and in the assay with EKVX was > 100 µM (inactive) in each case. In addition, the GI50 with DU-145, in the assay with A549, in the assay with SF-268, with ACHN, with MDA-MB-231 and in the assay on HOP-92 was > 100 µM (inactive) in each case. Also, the GI50 in the assay with T47D, in the assay on HT-29, in the assay with M14, with CCRF-CEM, in the assay on OVCAR-3 and in the assay on SK-MEL-5 was > 100 µM (inactive) in each case.
Take `C=CCOc1ccc(C2(O)c3ccccc3C3=NCCCN32)cc1` (centres undefined): the GI50 in the assay with K562 was 32.4 µM (inactive); in the assay on MOLT-4, 33.2 µM (inactive); in the assay with SR it was 25.2 µM (inactive); with MCF7 it was 43.7 µM (inactive); in the assay with BT-549, > 100 µM (inactive); in the assay on SNB-19, 47.8 µM (inactive). Moreover, the GI50 is 80.5 µM (inactive) in the assay on EKVX; > 100 µM (inactive) in the assay with DU-145; 55.3 µM (inactive) with A549; > 61.4 µM (inactive) in the assay with SF-268; 41.6 µM (inactive) in the assay on ACHN; > 63 µM (inactive) in the assay with MDA-MB-231. The GI50 is 43.6 µM (inactive) in the assay with HOP-92; 27.9 µM (inactive) with T47D; > 65.9 µM (inactive) in the assay on HT-29; 18.1 µM (inactive) in the assay with M14; 38 µM (inactive) in the assay on CCRF-CEM; 46.3 µM (inactive) in the assay on OVCAR-3. Also, in the assay on SK-MEL-5, the GI50 is 22.1 µM (inactive).
